From ChEMBL document CHEMBL4359891, “Synthesis of polyfluoroalkyl sp2-iminosugar glycolipids and evaluation of their immunomodulatory properties towards anti-tumor, anti-leishmanial and anti-inflammatory therapies” (Eur J Med Chem, 2019)
pEC50: −log10 of the molar value. Calls of active or inactive are those of the source. The rule behind the calls is not given here.

Legend:
[1] = biological target: Mitogen-activated protein kinase 14 (Mus musculus) (UniProt P47811); experiment: Activation of p38 alpha MAPK in mouse BV2 cells assessed as p38 phosphorylation at 1 uM by Western blot analysis; type: cell-based; conditions: TDE = time-dependent effect
WiDr = experiment: Antiproliferative activity against human WiDr cells assessed as growth inhibition after 48 hrs by SRB assay; type: functional
BV-2 [2] = experiment: Cytotoxicity against mouse BV2 cells assessed as reduction in cell viability up to 10 uM by crystal violet staining based assay
Leishmania donovani = experiment: Antileishmanial activity against intracellular amastigote stage of Leishmania donovani fused with LUC infected in human THP1 cells assessed as parasite growth inhibition after 72 hrs post infection by luciferase based assay; type: functional, organism-based; conditions: THP-1, 72 h
BV-2 [3] = experiment: Antiinflammatory activity against mouse BV2 cells assessed as reduction in LPS-induced nitrite level at 1 to 10 uM by Griess assay; type: functional, cell-based
T47D = experiment: Antiproliferative activity against human T47D cells assessed as growth inhibition after 48 hrs by SRB assay; type: functional
[4] = Critical aggregation concentration of compound by spectrofluorophotometric method; type: physicochemical
BV-2 [5] = experiment: Antiinflammatory activity against mouse BV2 cells assessed as reduction in LPS-induced iNOS protein expression at 1 uM by Western blot analysis; type: functional, cell-based
HBL-100 = experiment: Antiproliferative activity against human HBL100 cells assessed as growth inhibition after 48 hrs by SRB assay; type: functional; conditions: HBL-100, 48 h
A549 = experiment: Antiproliferative activity against human A549 cells assessed as growth inhibition after 48 hrs by SRB assay; type: functional; conditions: A549, 48 h
SW1573 = experiment: Antiproliferative activity against human SW1573 cells assessed as growth inhibition after 48 hrs by SRB assay; type: functional; conditions: SW1573, 48 h
THP-1 = experiment: Cytotoxicity against human THP1 cells assessed as reduction in cell viability after 72 hrs by MTT assay; type: cell-based; conditions: THP-1, 72 h
HeLa = experiment: Antiproliferative activity against human HeLa cells assessed as growth inhibition after 48 hrs by SRB assay; type: functional
[6] = biological target: Mitogen-activated protein kinase 14 (Mus musculus) (UniProt P47811); experiment: Activation of p38 alpha MAPK in mouse BV2 cells assessed as p38 phosphorylation at 10 uM by Western blot analysis; type: cell-based; conditions: TDE = time-dependent effect
BV-2 [7] = experiment: Antiinflammatory activity against mouse BV2 cells assessed as reduction in LPS-induced iNOS protein expression at 10 uM by Western blot analysis; type: functional, cell-based
[8] = biological target: Mitogen-activated protein kinase 14 (Mus musculus) (UniProt P47811); experiment: Activation of p38 alpha MAPK in mouse BV2 cells assessed as p38 phosphorylation at 1 uM incubated for 15 to 60 mins by Western blot analysis; type: cell-based

Sequence of Mitogen-activated protein kinase 14 (Mus musculus) (P47811 whole entry): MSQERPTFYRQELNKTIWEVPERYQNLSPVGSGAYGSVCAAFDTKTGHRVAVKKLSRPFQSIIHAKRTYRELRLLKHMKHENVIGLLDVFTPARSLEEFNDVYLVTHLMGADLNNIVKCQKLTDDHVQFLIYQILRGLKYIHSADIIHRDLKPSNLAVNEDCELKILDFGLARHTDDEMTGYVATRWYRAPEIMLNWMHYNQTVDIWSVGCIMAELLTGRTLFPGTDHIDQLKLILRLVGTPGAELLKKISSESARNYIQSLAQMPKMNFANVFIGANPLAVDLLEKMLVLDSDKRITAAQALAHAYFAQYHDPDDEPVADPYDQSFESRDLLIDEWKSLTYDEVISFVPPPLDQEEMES

With O=C(CCC(F)(F)C(F)(F)C(F)(F)C(F)(F)C(F)(F)C(F)(F)F)NCCCCCCCCCN[C@@H]1[C@H](O)[C@@H](O)[C@@H](O)[C@H]2COC(=O)N21 the Activity [1] was “Tde”, the GI50 (WiDr) was 17 µM and the Activity (BV-2 [2]) was “Non-Toxic”. For the same compound, the pEC50 (Leishmania donovani) was 4.57, the Activity (BV-2 [3]) was “Active” and the GI50 (T47D) was 15 µM. The CAC [4] was 14 µM, the Activity (BV-2 [5]) was “Active” and the GI50 (HBL-100) was 16 µM. The GI50 (A549) was 17 µM, the GI50 (SW1573) was 14 µM and the pEC50 (THP-1) was 4.25. It also gave a GI50 (HeLa) of 10 µM.
For CCCCCCCCCCCCCCCCOP(=O)([O-])OCC[N+](C)(C)C [MILTEFOSINE], the pEC50 (Leishmania donovani) was 6.36.
With O=C(CCC(F)(F)C(F)(F)C(F)(F)C(F)(F)C(F)(F)C(F)(F)F)NCCCCCCCCCN[C@@H]1[C@H](O)[C@@H](O)[C@H](O)[C@H]2COC(=O)N21 the GI50 (WiDr) was 13 µM, the Activity (BV-2 [2]) was “Non-Toxic” and the pEC50 (Leishmania donovani) was 4.61. For the same compound, the Activity [6] was “Tde”, the Activity (BV-2 [3]) was “Active” and the GI50 (T47D) was 11 µM. For the same compound, the CAC [4] was 22 µM, the GI50 (HBL-100) was 16 µM and the Activity (BV-2 [7]) was “Active”. It also gave a GI50 (A549) of 12 µM, a GI50 (SW1573) of 14 µM and a pEC50 (THP-1) of 4.19. The GI50 (HeLa) was 12 µM.
For O=C(CCC(F)(F)C(F)(F)C(F)(F)C(F)(F)F)NCCCCCCCCCN[C@@H]1[C@H](O)[C@@H](O)[C@@H](O)[C@H]2COC(=O)N21, the GI50 (WiDr) was > 100 µM, the pEC50 (Leishmania donovani) was < 4.40 and the GI50 (T47D) was 96 µM. The CAC [4] was 118 µM, the GI50 (HBL-100) was > 100 µM and the GI50 (A549) was 76 µM. For the same compound, the GI50 (SW1573) was > 100 µM, the pEC50 (THP-1) was < 3.70 and the GI50 (HeLa) was 45 µM.
In the case of O=C(CCC(F)(F)C(F)(F)C(F)(F)C(F)(F)C(F)(F)C(F)(F)C(F)(F)C(F)(F)F)NCCCCCCCCCN[C@@H]1[C@H](O)[C@@H](O)[C@H](O)[C@H]2COC(=O)N21, the GI50 (WiDr) was > 100 µM, the pEC50 (Leishmania donovani) was 4.52 and the GI50 (T47D) was > 100 µM. For the same compound, the CAC [4] was 6.9 µM, the GI50 (HBL-100) was > 100 µM and the GI50 (A549) was > 100 µM. For the same compound, the GI50 (SW1573) was > 100 µM, the pEC50 (THP-1) was 3.82 and the GI50 (HeLa) was > 100 µM.
In the case of O=C(CCC(F)(F)C(F)(F)C(F)(F)C(F)(F)F)NCCCCCCCCCN[C@@H]1[C@H](O)[C@@H](O)[C@H](O)[C@H]2COC(=O)N21, the GI50 (WiDr) was > 100 µM, the pEC50 (Leishmania donovani) was < 4.40 and the GI50 (T47D) was > 100 µM. For the same compound, the CAC [4] was 77.9 µM, the GI50 (HBL-100) was > 100 µM and the GI50 (A549) was > 100 µM. The GI50 (SW1573) was > 100 µM, the pEC50 (THP-1) was < 3.70 and the GI50 (HeLa) was > 100 µM.
In the case of CCCCCCCCCCCCS(=O)(=O)[C@@H]1[C@H](O)[C@@H](O)[C@@H](O)[C@H]2COC(=O)N21, the Activity [8] was “Active”.
With O=C(CCC(F)(F)C(F)(F)C(F)(F)C(F)(F)C(F)(F)C(F)(F)C(F)(F)C(F)(F)F)NCCCCCCCCCN[C@@H]1[C@H](O)[C@@H](O)[C@@H](O)[C@H]2COC(=O)N21 the GI50 (WiDr) was > 100 µM, the pEC50 (Leishmania donovani) was 4.64 and the GI50 (T47D) was > 100 µM. For the same compound, the CAC [4] was 13 µM, the GI50 (HBL-100) was > 100 µM and the GI50 (A549) was > 100 µM. For the same compound, the GI50 (SW1573) was > 100 µM, the pEC50 (THP-1) was 3.91 and the GI50 (HeLa) was > 100 µM.
